Molecules are shown by their SMILES. Bounds are passed on as bounds.

In this assay the target is T1, α4β1 integrin (Homo sapiens, UniProt P05556+P13612).
T1 construct: endogenous in cells; host or cells: Ramos cells
As to the kind of experiment: Adhesion of calcein-labeled Ramos cells to CS1 (fibronectin) peptide conjugated ovalbumin. It is filed as cell-based. The following applies: Table 4; Ramos cell adhesion to CS1 conjugated ovalbumin, 30 minutes at 37° C. As for the experimental part: A procedure in which a 26-amino acid peptide containing the CS1 sequence of fibronectin with an N-terminal Cys ([…]) was coupled to maleimide activated ovalbumin was used to determine the efficacy of the compounds synthesized. Bovine serum albumin (BSA) and CS1 conjugated ovalbumin were coated onto 96-well polystyrene plates at 0.5 μg/ml in TBS (50 mM TRIS, pH 7.5; 150 mM NaCl) at 4° C. for 16 hours. The plates were washed three times with TBS and blocked with TBS containing 3% BSA at room temperature for 4 hours. Blocked plates were washed three times in binding buffer (TBS; 1 mM MgCl2; 1 mM CaCl2; 1 mM MnCl2) prior to assay. Ramos cells fluorescently labeled with calcein AM were resuspended in binding buffer (10^7 cells/ml) and diluted 1:2 with same buffer with or without compound. 100 μM of compound was added. The cells were added immediately to the wells (2.5×10^5 cells/well) and incubated for 30 minutes at 37° C. Following three washes with binding buffer, adherent cells were lysed and quantitated using a fluorometer. IC50 is defined as the dose required to give 50% inhibition, measured in μM for Tables 2 and 4. The lower the IC50 value and the greater the percentage of inhibition, the more efficient the compound is at prevention of cell adhesion.

T1 sequence (P13612 34-1032): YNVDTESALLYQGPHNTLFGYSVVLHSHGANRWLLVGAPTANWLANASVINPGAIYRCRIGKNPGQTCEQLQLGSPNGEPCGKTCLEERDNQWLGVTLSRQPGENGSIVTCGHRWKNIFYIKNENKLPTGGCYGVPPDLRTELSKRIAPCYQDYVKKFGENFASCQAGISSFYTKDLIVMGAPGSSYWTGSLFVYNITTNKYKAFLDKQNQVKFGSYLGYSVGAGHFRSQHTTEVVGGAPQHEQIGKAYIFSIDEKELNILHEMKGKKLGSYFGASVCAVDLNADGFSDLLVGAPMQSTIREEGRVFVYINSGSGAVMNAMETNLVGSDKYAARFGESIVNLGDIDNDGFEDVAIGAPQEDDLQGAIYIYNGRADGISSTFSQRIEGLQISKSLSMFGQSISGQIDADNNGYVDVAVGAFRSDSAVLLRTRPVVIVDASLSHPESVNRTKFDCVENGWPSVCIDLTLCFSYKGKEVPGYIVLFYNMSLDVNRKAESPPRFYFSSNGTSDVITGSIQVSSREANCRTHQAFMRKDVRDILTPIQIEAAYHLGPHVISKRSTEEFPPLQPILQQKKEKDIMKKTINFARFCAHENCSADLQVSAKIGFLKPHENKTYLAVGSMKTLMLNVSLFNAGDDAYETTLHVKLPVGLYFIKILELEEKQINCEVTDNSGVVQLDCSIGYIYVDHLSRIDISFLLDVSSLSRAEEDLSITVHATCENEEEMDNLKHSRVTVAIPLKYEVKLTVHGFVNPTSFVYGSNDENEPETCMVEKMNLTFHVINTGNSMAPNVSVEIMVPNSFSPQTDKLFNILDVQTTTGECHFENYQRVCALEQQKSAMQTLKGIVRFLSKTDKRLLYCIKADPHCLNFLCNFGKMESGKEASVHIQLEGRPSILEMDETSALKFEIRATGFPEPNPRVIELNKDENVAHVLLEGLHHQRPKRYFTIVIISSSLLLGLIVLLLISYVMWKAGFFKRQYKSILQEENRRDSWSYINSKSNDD
T1 sequence (P05556 21-798): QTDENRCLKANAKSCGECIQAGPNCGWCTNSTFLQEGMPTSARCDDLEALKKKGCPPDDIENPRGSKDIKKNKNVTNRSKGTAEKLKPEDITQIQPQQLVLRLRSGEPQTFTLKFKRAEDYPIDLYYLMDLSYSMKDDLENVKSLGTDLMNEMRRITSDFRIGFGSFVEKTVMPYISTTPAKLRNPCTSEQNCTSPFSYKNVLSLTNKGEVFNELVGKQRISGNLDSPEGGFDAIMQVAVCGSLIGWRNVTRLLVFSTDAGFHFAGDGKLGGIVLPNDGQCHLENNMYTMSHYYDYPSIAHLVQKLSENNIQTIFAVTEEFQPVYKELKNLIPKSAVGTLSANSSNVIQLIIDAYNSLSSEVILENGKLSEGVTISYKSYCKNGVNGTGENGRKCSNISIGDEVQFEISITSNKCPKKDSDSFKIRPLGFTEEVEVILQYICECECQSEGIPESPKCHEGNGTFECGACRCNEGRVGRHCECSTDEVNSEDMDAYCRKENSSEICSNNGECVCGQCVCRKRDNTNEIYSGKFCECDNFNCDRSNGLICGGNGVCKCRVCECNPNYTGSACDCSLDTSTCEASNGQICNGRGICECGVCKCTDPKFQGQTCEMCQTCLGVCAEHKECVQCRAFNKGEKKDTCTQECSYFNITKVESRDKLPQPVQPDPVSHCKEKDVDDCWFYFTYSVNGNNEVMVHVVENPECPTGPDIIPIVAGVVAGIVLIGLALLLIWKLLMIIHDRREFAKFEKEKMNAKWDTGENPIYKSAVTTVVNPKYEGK

Regarding `O=C(O)CC(NC(=O)Nc1cccn(Cc2ccccc2Cl)c1=O)c1cccc(Cl)c1` (stereo not shown), the 50% inhibitory concentration (IC50) was 1 µM.
To `O=C(O)CC(NC(=O)Nc1cccn(Cc2ccccc2Cl)c1=O)c1ccc(Cl)cc1` (stereo not shown) belongs 0.4 µM.
`O=C(O)CC(NC(=O)Nc1cccn(Cc2ccccc2Cl)c1=O)c1ccc(Cl)c(Cl)c1` (stereo not shown): the IC50 is 1 µM.
Then `CC(C)C[C@H](CC(=O)O)NC(=O)Nc1c(N2CCOCC2)ccn(Cc2ccccc2Cl)c1=O`, with 0.1 µM; and `O=C(O)C[C@H](NC(=O)Nc1cccc(NCc2cccs2)c1)c1ccc2c(c1)OCO2`, with 5 µM; and `O=C(O)C[C@H](NC(=O)Nc1cccn(Cc2cccc(Cl)c2)c1=O)c1ccc2c(c1)OCO2`, with 0.8 µM.
For `Cc1cccc(Cn2cccc(NC(=O)N[C@@H](CC(=O)O)c3ccc4c(c3)OCO4)c2=O)c1`, the IC50 is 1.5 µM.
Then `COc1ccc(Cn2cccc(NC(=O)N[C@@H](CC(=O)O)c3ccc4c(c3)OCO4)c2=O)cc1`, with 3 µM; and `O=C(O)C[C@H](NC(=O)Nc1cccn(Cc2ccc(Cl)cc2)c1=O)c1ccc2c(c1)OCO2`, with 3 µM.
To `O=C(O)C[C@H](NC(=O)Nc1cccn(Cc2cccc(C(F)(F)F)c2)c1=O)c1ccc2c(c1)OCO2` belongs 0.8 µM; to `O=C(O)C[C@H](NC(=O)NC1CCCCN(Cc2ccccc2)C1=O)c1ccc2c(c1)OCO2` (stereo partly shown), 0.015 µM; to `O=C(O)C[C@H](NC(=O)Nc1cccc(Oc2ccccc2)c1)c1ccc2c(c1)OCO2`, 50 µM.
As to `COc1cccc(OC)c1[C@H](CC(=O)O)NC(=O)Nc1cccn(Cc2ccccc2Cl)c1=O`, the IC50 was 6 µM.
As for `COc1cc(OC)cc([C@H](CC(=O)O)NC(=O)Nc2cccn(Cc3cccs3)c2=O)c1`, the IC50 is 0.7 µM.
Then `COc1ccc([C@H](CC(=O)O)NC(=O)Nc2cccn(Cc3cccs3)c2=O)cc1`, with 0.8 µM; and `O=C(O)C[C@H](NC(=O)Nc1cccn(Cc2cccs2)c1=O)c1ccc(F)cc1`, with 1.6 µM.
To `Cc1ccc([C@H](CC(=O)O)NC(=O)Nc2cccn(Cc3csc(C)n3)c2=O)cc1` belongs 1 µM.
Then `Cc1ccc([C@H](CC(=O)O)NC(=O)Nc2cccn(Cc3ccccc3[N+](=O)[O-])c2=O)cc1`, with 1 µM; and `Cc1ccc([C@H](CC(=O)O)NC(=O)Nc2cccn(Cc3ccc([N+](=O)[O-])cc3)c2=O)cc1`, with 1 µM.
Regarding `Cc1ccc([C@H](CC(=O)O)NC(=O)Nc2cccn(Cc3c(C)cc(C)cc3C)c2=O)cc1`, the IC50 was 2.5 µM.
Then `Cc1ccccc1[C@H](CC(=O)O)NC(=O)Nc1cccn(Cc2ccccc2Cl)c1=O`, with 3 µM; and `Cc1ccc([C@H](CC(=O)O)NC(=O)Nc2cccn(Cc3nc4ccccc4o3)c2=O)cc1`, with more than 10 µM.
Regarding `Cc1ccc([C@H](CC(=O)O)NC(=O)Nc2cccn(CC(=O)Nc3ccccc3O)c2=O)cc1`, the IC50 is more than 10 µM.
Turning to `Cc1ccc([C@H](CC(=O)O)NC(=O)Nc2cccn(Cc3c(N)cccc3Cl)c2=O)cc1`, the IC50 was 2 µM.
Then `Cc1ccc([C@H](CC(=O)O)NC(=O)Nc2cccn(Cc3ccc(Cl)cc3Br)c2=O)cc1`, with 1 µM; and `Cc1ccc([C@H](CC(=O)O)NC(=O)Nc2cccn(Cc3cc(NS(C)(=O)=O)ccc3Br)c2=O)cc1`, with 0.25 µM; and `Cc1ccc([C@H](CC(=O)O)NC(=O)Nc2cccn(Cc3cc(F)ccc3Br)c2=O)cc1`, with 0.5 µM.
For the compound `Cc1ccc([C@H](CC(=O)O)NC(=O)Nc2cccn(Cc3cc([N+](=O)[O-])ccc3Br)c2=O)cc1`, the 50% inhibitory concentration (IC50) is 2 µM.
`COc1ccc([C@H](CC(=O)O)NC(=O)Nc2cccn(Cc3ccccc3Br)c2=O)cc1C`: the IC50 was 0.2 µM.
For `Cc1ccc([C@H](CC(=O)O)NC(=O)Nc2cccn(Cc3ccc(F)cc3Cl)c2=O)cc1`, the IC50 is 0.35 µM.
Regarding `Cc1ccc([C@H](CC(=O)O)NC(=O)Nc2cccn(Cc3c(F)cccc3Cl)c2=O)cc1`, the IC50 was 0.1 µM.
In the case of `Cc1ccc([C@H](CC(=O)O)NC(=O)Nc2cccn(Cc3c(Cl)cccc3[N+](=O)[O-])c2=O)cc1`, the IC50 was 4 µM.
As to `Cc1ccc([C@H](CC(=O)O)NC(=O)Nc2cnc(C)n(Cc3ccccc3Cl)c2=O)cc1`, the IC50 was 0.09 µM.
As to `O=C(O)C[C@H](NC(=O)Nc1cccn(Cc2ccccc2Cl)c1=O)c1ccc2c(c1)CCC2`, the IC50 was 0.3 µM.
To `O=C(O)C[C@H](NC(=O)Nc1cccn(Cc2ccccc2Cl)c1=O)c1c(O)cccc1O` belongs 3 µM; to `CCCS(=O)(=O)Nc1ccn(Cc2ccccc2Cl)c(=O)c1NC(=O)N[C@@H](CC(=O)O)c1ccc(C)cc1`, 0.03 µM.
As to `O=C(O)C[C@H](NC(=O)Nc1c(O)ccn(Cc2ccccc2Cl)c1=O)c1ccc(OC(F)(F)F)cc1`, the 50% inhibitory concentration (IC50) is 0.015 µM.
For the compound `COc1ccc([C@H](CC(=O)O)NC(=O)Nc2c(O)ccn(Cc3ccccc3Cl)c2=O)c(C)c1C`, the IC50 is 0.035 µM.
Regarding `CCOc1ccc([C@H](CC(=O)O)NC(=O)Nc2c(O)ccn(Cc3ccccc3Cl)c2=O)cc1`, the 50% inhibitory concentration (IC50) is 0.02 µM.
To `CCc1ccc([C@H](CC(=O)O)NC(=O)Nc2c(O)ccn(Cc3ccccc3Cl)c2=O)cc1` belongs 0.025 µM.
To `Cc1ccc([C@H](CC(=O)O)NC(=O)Nc2cn(Cc3ccccc3Cl)ccc2=O)cc1` belongs 0.1 µM.
Then `Cc1ccc([C@H](CC(=O)O)NC(=O)Nc2cccn(Cc3ccccc3C#N)c2=O)cc1`, with 0.1 µM; and `Cc1ccc([C@H](CC(=O)O)NC(=O)Nc2cccn(Cc3ccc(C(F)(F)F)cc3F)c2=O)cc1`, with 3 µM; and `Cc1ccc([C@H](CC(=O)O)NC(=O)Nc2cccn(Cc3ccc(F)cc3F)c2=O)cc1`, with 1.3 µM.
Take `Cc1ccc([C@H](CC(=O)O)NC(=O)Nc2cccn(Cc3cc(F)ccc3F)c2=O)cc1`: the 50% inhibitory concentration (IC50) is 0.8 µM.
To `Cc1ccc([C@H](CC(=O)O)NC(=O)Nc2cccn(Cc3cc(C)ccc3C)c2=O)cc1` belongs 0.15 µM; to `Cc1ccc([C@H](CC(=O)O)NC(=O)Nc2cccn(Cc3c(F)cccc3F)c2=O)cc1`, 0.3 µM; to `Cc1ccc([C@H](CC(=O)O)NC(=O)Nc2cccn(Cc3cccc(O)c3)c2=O)cc1`, 0.2 µM.
Turning to `Cc1ccc([C@H](CC(=O)O)NC(=O)Nc2cccn(Cc3c(C)noc3C)c2=O)cc1`, the IC50 is 3 µM.
`Cc1ccc([C@H](CC(=O)O)NC(=O)Nc2cccn(Cc3ccc(C(C)(C)C)cc3)c2=O)cc1`: the IC50 was 6 µM.
Regarding `Cc1ccc([C@H](CC(=O)O)NC(=O)Nc2cccn(Cc3ccc(Cl)cc3)c2=O)cc1`, the IC50 is 2 µM.
Then `CC(=O)Nc1ccc(Br)c(Cn2cccc(NC(=O)N[C@@H](CC(=O)O)c3ccc(C)cc3)c2=O)c1`, with 0.2 µM; and `Cc1ccc([C@H](CC(=O)O)NC(=O)Nc2cccn(Cc3cc(N)ccc3Br)c2=O)cc1`, with 0.08 µM.
As to `Cc1ccc([C@H](CC(=O)O)NC(=O)Nc2cccn(Cc3cc(Cl)ccc3F)c2=O)cc1`, the IC50 was 2.5 µM.
As for `Cc1ccc([C@H](CC(=O)O)NC(=O)Nc2cccn(Cc3ccc(Cl)s3)c2=O)cc1`, the IC50 was 1.3 µM.
To `O=C(O)C[C@H](NC(=O)Nc1cccn(Cc2cccs2)c1=O)c1cccc(C(F)(F)F)c1` belongs 2.5 µM; to `Cc1ccc([C@H](CC(=O)O)NC(=O)Nc2c(O)ccn(Cc3ccccc3)c2=O)cc1`, 0.03 µM.
For the compound `Cc1ccc([C@H](CC(=O)O)NC(=O)Nc2c(O)cc(C)n(Cc3ccccc3)c2=O)cc1`, the IC50 is 0.035 µM.

(Values after patent US6972296B2, “Carboxylic acid derivatives that inhibit the binding of integrins to their receptors” (Encysive Pharmaceuticals Inc., priority 1999, dated 2005).)
